Assay results from PubChem BioAssay AID843 (The Scripps Research Institute Molecular Screening Center, 2007).
Calls of active or inactive are those of the source. No rule for the calls is given here.

System: CRE-bla reporter cells, beta-lactamase FRET, activation
Assay: CRE beta-lactamase reporter activation – cell-based, beta-lactamase FRET, counter-screen for S1P2 agonist project, dose response (AID 843)

SMILES | EC50
CCOC(=O)CN(C(=O)CSc1nnc(COc2ccc(OC)cc2)n1C)c1ccccc1 | > 50 µM (inactive)
CCOC(=O)c1cc2ccc(OC(=O)c3ccco3)cc2oc1=O | 8.74 µM
O=C1SC(c2ccccc2)=N/C1=C/c1ccco1 | > 50 µM (inactive)
O=c1c(-c2nc3ccccc3s2)cccn1Cc1ccc(Cl)cc1 | 3.43 µM
CCC(C)NC(=O)c1c(N)n(Cc2ccc3c(c2)OCO3)c2nc3ccccc3nc12 (configuration not stated) | 5.7 µM
Cc1ccc(Cn2cccc(-c3nc4ccccc4s3)c2=O)cc1 | 24 µM (inactive)
COc1ccc(C(c2c[nH]c3ccccc23)c2c[nH]c3ccccc23)cc1O | > 50 µM (inactive)
Cc1cc(C(=O)CN2C(=O)CCC2=O)c(C)n1Cc1ccccc1 | > 50 µM (inactive)
CCN(CC)c1ccc(NC(=O)Nc2ccccc2C(F)(F)F)cc1 | > 50 µM (inactive)
Clc1ccc(N2N=C(c3cccs3)CC2c2ccco2)cc1 (configuration not stated) | 3.35 µM
CCOC(=O)c1cc2ccc(OC)c(OC)c2c(=O)s1 | > 50 µM (inactive)
CS(=O)(=O)NCc1nnc(SCC(=O)NC2CCCCC2)n1-c1ccc(F)cc1 | > 50 µM (inactive)
Cc1cc(C)n2cc(CSc3nnnn3-c3ccc(Cl)cc3)nc2n1 | > 50 µM (inactive)
CC(C)n1c(=N)c(C(=O)NCCc2ccccc2)cc2c(=O)n3ccccc3nc21 | 23.6 µM (inactive)
Clc1ccc(-c2ccc(/C=N/Nc3cc(N4CCOCC4)nc(N4CCOCC4)n3)o2)cc1 | 14.5 µM (inactive)
c1ccc(-c2nc3ccccn3c2NCc2ccc3c(c2)OCO3)cc1 | > 50 µM (inactive)
CCOCCCNc1nc(=S)[nH]c2cc(OC)c(OC)cc12 | > 50 µM (inactive)
O=S(=O)(c1ccc(N2CCC(c3ccc(Cl)cc3)=N2)cc1)N(CCO)CCO | 9.11 µM
CC(C)CNC(=O)c1c(N)n(Cc2ccc3c(c2)OCO3)c2nc3ccccc3nc12 | 5.66 µM
COc1cc2c(cc1OC)C1=C(C#N)CCC(=NC(=O)c3ccc(Cl)cc3)N1CC2 | 1.64 µM
COc1cc2c(cc1OC)C1=C(C#N)CCC(=O)N1CC2 | 2.96 µM

SMILES | EC50
Cc1cccc(C(=O)NC2CC3CCCC(C2)N3C(=O)NC2CCCCC2)c1 (configuration not stated) | > 50 µM (inactive)
Cc1cc(C)c(S(=O)(=O)Nc2ccc(O)cc2)cc1C | > 50 µM (inactive)
Clc1ccc2nc(N3CCNCC3)nc(-c3ccccc3)c2c1 | 9.98 µM
COc1ccc2cc(S(=O)(=O)NCCCN3CCOCC3)ccc2c1 | > 50 µM (inactive)
NC(=O)c1ccc(NC(=O)C2CCCO2)cc1 (configuration not stated) | > 50 µM (inactive)
O=c1[nH]c(-c2cccs2)nc2ccccc12 | > 50 µM (inactive)
C(=C\c1ccccc1)/CSc1nnc(-c2ccccc2)n1Cc1ccco1 | > 50 µM (inactive)
Cc1ccc(CNC(=O)CCNC(=O)c2ccco2)cc1 | > 50 µM (inactive)
Oc1cccc(C(=S)N2CCN(Cc3ccccc3)CC2)c1 | > 50 µM (inactive)
COc1ccccc1CNC(=O)c1c(N)n(CCCN2CCOCC2)c2nc3ccccc3nc12 | 22.9 µM (inactive)
O=C(CCC(=O)N1CCc2ccccc21)Nc1ccccc1 | > 50 µM (inactive)
Nc1c(C(=O)NCCCc2ccccc2)c2nc3ccccc3nc2n1Cc1cccs1 | 5.9 µM
N#CCN1CCN(CC(=O)Nc2cccc3ccccc23)CC1 | > 50 µM (inactive)
NS(=O)(=O)c1ccc(N2N=C(c3ccc(Br)cc3)CC2c2ccc(F)cc2)cc1 (configuration not stated) | 2.69 µM
COCCNC(=O)CN1CCN(C(c2ccccc2)c2ccccc2)CC1 | > 50 µM (inactive)
O=C(Nc1ccccn1)Nc1cccs1 | > 50 µM (inactive)
COc1cccc(CNC(=O)CN(c2cc(C)cc(C)c2)S(=O)(=O)c2c(C)noc2C)c1 | > 50 µM (inactive)
O=C(NCc1ccco1)c1cc2ccc(O)cc2oc1=O | 12.7 µM (inactive)
Cc1ccccc1-n1c(=O)c(C#N)cc2c(=O)n3ccccc3nc21 | 26.3 µM (inactive)
CCC(=O)c1cc2c(C)cc(=O)oc2c(C)c1O | > 50 µM (inactive)
CCC(C)n1c(NC(=O)c2ccccc2)c(C#N)c2nc3ccccc3nc21 (configuration not stated) | 2.95 µM

SMILES | EC50
c1ccc(OCCSc2nnnn2-c2ccccc2)cc1 | > 50 µM (inactive)
Cc1cc(-c2nnc(SCC(=O)NC3CCCC3)o2)no1 | > 50 µM (inactive)
CCOC(=O)c1c(C)n(C)c2ccc(OCC(O)Cn3nc(C)cc3C)cc12 (configuration not stated) | > 50 µM (inactive)
C=CCn1c(N)cc(=O)nc1SCC(=O)Nc1ccccc1 | > 50 µM (inactive)
Cc1cc(Br)ccc1OCCCCNCCO | > 50 µM (inactive)
O=C(NCC1(c2ccccc2)CCCC1)C(=O)N1CCOCC1 | > 50 µM (inactive)
O=C(Cc1c[nH]c2ccccc12)Nc1nc2ccccc2[nH]1 | > 50 µM (inactive)
O=c1c(-c2nc3ccccc3s2)cccn1Cc1ccccc1 | 6.82 µM
O=S(=O)(Cc1ccc(Cl)cc1)NCC1CCCO1 (configuration not stated) | > 50 µM (inactive)
O=C1CCCC(O)=C1C=NCCc1ccccc1 | > 50 µM (inactive)
CCCc1nn(-c2cc(Cl)ccc2OC)c2c1C(=O)CCC2 | > 50 µM (inactive)
COC(=O)c1cn[nH]c1NC(=S)Nc1ccccc1C | > 50 µM (inactive)
CCOc1cccc(OCCCCn2ccnc2)c1 | > 50 µM (inactive)
Cc1ccc(C2CC(=O)c3cnc(N4CCc5ccccc5C4)nc3C2)cc1 (configuration not stated) | > 50 µM (inactive)
COc1ccc(Cn2c(-c3ccco3)nc3oc4cc(OC)ccc4c(=O)c3c2=O)cc1 | > 50 µM (inactive)
Cc1cccc2cc(C(c3nnnn3CC3CCCO3)N3CCc4ccccc4C3)c(=O)[nH]c12 (configuration not stated) | > 50 µM (inactive)
O=c1c(-c2nc3ccccc3s2)cccn1Cc1ccc(Cl)c(Cl)c1 | 3.29 µM
Cc1cccn2c(=O)c3cc(C(=O)NCCc4ccccc4)c(=N)n(CCCn4ccnc4)c3nc12 | 10.2 µM (inactive)
CC(C)CCNC(=O)c1c(N)n(Cc2ccc3c(c2)OCO3)c2nc3ccccc3nc12 | 6.45 µM
CN(C)CCCNS(=O)(=O)c1ccc(N2CCC(c3ccc(Cl)cc3)=N2)cc1 | 1.03 µM
